Results taken from patent US12590131B2, “Antimicrobial peptides with alpha-core helices” (priority 2017, dated 2026).

System: panel of prototypic gram-positive (S. aureus), gram-negative (S. typhimurium, P. aeruginosa, A. baumannii) and fungal (C. albicans) pathogens
Assay: Radial diffusion assay for microbicidal activity, whole pathogen panel
Format: cell-based
Conditions: 10 μg peptide
Experimental: Select candidate microbicidal peptides were commercially synthesized by BioMatik (Biomatik USA, Wilmington, Delaware). Lyophilized peptides were reconstituted with ddIH20 and stored in aliquots at −20° C. LL-37 (Peptides International, Louisville, KY), a prototypic human AHAP, was used as a comparator in microbicidal assays.
Putative antimicrobial peptides were assayed for microbicidal activity using a well-established radial diffusion method modified to pH 5.5 or 7.5. A panel of microorganisms was tested: Gram-positive Staphylococcus aureus (ISP 479C, ISP 479R); Gram-negative Salmonella typhimurium (MS 5996s, MS 14028), Pseudomonas aeruginosa (PA01), Acinetobacter baumanni (19606) and the fungus Candida albicans (36082S, 36082R). Logarithmic phase organisms were inoculated (10^6 CFU/ml) into buffered agarose, and poured into plates. Peptides (10 μg) were introduced into wells in the seeded matrix, and incubated for 3 h at 37° C. Nutrient overlay medium was applied, and assays incubated at 37° C. or 30° C. for bacteria or fungi, respectively. After 24h, zones of inhibition were measured. Independent experiments were repeated a minimum of two times.

## hIL-21 (KEFLERFKSLLQKMIHQHLSSRTHGSEDS)
pH 5.5
  microbicidal activity (zones of inhibition): retained significant activity
pH 7.5
  microbicidal activity (zones of inhibition): somewhat less potent

## bIFN-γ (KAISELYNVITELSKSNSKMRKRRQNLFRGWKASK)
  relative potency at pH 7.5 versus pH 5.5: somewhat more potent at pH 7.5 than 5.5
pH 7.5 and pH 5.5, FIG. 9
  microbicidal activity (zones of inhibition): significant activity against most organisms

## tIL-5 (KRFIEKLRTFLRKLSRGAK)
pH 7.5 and pH 5.5, FIG. 9
  microbicidal activity (zones of inhibition): markedly potent against all organisms

## hIFN-γ (AIHELIQVMAELSPAAKTGKRKRSQMLFRGRRASQ)
  relative potency at pH 7.5 versus pH 5.5: somewhat more potent at pH 7.5 than 5.5
pH 7.5 and pH 5.5, FIG. 9
  microbicidal activity (zones of inhibition): significant activity against most organisms

## hIL7 (LCFLKRLLQEIKTCWNKILMGTKEH)
pH 5.5
  microbicidal activity (zones of inhibition): retained significant activity
pH 7.5
  microbicidal activity (zones of inhibition): somewhat less potent

## hIL-13 (EVAQFVKDLLLHLKKLFREGRFN)
pH 5.5
  microbicidal activity (zones of inhibition): retained significant activity
pH 7.5
  microbicidal activity (zones of inhibition): somewhat less potent
